The source made the active and inactive calls. The calls are words filed in the database; no cut-off is given here.
How the values were obtained:
Escherichia coli [1] = test: Antimicrobial activity against Escherichia coli ATCC 25922 assessed as inhibition of microbial growth at <= 200 ug/ml incubated for 18 hrs by micro-broth dilution method; format: functional, organism-based; details: dose <= 200.0 µg/ml
Klebsiella pneumoniae = test: Antimicrobial activity against Klebsiella pneumoniae ATCC 27736 assessed as inhibition of microbial growth at <= 200 ug/ml incubated for 18 hrs by micro-broth dilution method; format: functional, organism-based; details: dose <= 200.0 µg/ml
Salmonella paratyphi = test: Antimicrobial activity against Salmonella paratyphi ATCC 9150 assessed as inhibition of microbial growth at <= 200 ug/ml incubated for 18 hrs by micro-broth dilution method; format: functional, organism-based; details: Salmonella enterica subsp. enterica serovar Paratyphi A, dose <= 200.0 µg/ml
Escherichia coli [2] = test: Antimicrobial activity against Carbapenem-resistant Escherichia coli assessed as inhibition of microbial growth at <= 200 ug/ml incubated for 18 hrs by micro-broth dilution method; format: functional, organism-based; details: dose <= 200.0 µg/ml
[3] = system: Staphylococcus epidermidis; test: Antimicrobial activity against Staphylococcus epidermidis ATCC 12228 assessed as inhibition of microbial growth at <= 200 ug/ml incubated for 18 hrs by micro-broth dilution method; format: functional, organism-based; details: dose <= 200.0 µg/ml
Staphylococcus aureus [4] = test: Antimicrobial activity against Staphylococcus aureus ATCC 25923 assessed as reduction in metabolic activity at < 200 ug/ml incubated for 1 to 4 hrs by CCK-8 assay; format: functional, organism-based; details: dose < 200.0 µg/ml, time 1-4 hrs
Staphylococcus aureus [5] = test: Antibacterial activity against Methicillin-resistant Staphylococcus aureus infected in C57BL/6 mouse assessed as reduction in bacterial load at 10 mg/kg,ip administrated 5 hrs after bacterial infection; format: functional, organism-based
Escherichia coli [6] = test: Antibacterial activity against Escherichia coli ATCC 25922 infected in C57BL/6 mouse assessed as reduction in IL-6 level in peritoneal fluid at 10 mg/kg,ip pre-administrated 5 hrs before bacterial infection measured after 24 hrs by ELISA; format: functional, organism-based; details: time 29.0 hrs
Staphylococcus aureus [7] = test: Antibacterial activity against Methicillin-resistant Staphylococcus aureus infected in C57BL/6 mouse assessed as reduction in IL-1beta level in peritoneal fluid at 10 mg/kg,ip administrated 5 hrs after bacterial infection measured after 24 hrs by ELISA; format: functional, organism-based; details: time 19.0 hrs
Staphylococcus aureus [8] = test: Antibacterial activity against Staphylococcus aureus ATCC 25923 infected in C57BL/6 mouse assessed as reduction in IL-1beta level in serum at 10 mg/kg,ip administrated 5 hrs after bacterial infection measured after 24 hrs by ELISA; format: functional, organism-based; details: time 19.0 hrs
Escherichia coli [9] = test: Antibacterial activity against Escherichia coli ATCC 25922 infected in C57BL/6 mouse assessed as reduction in TNF-alpha level in serum at 10 mg/kg,ip pre-administrated 5 hrs before bacterial infection measured after 24 hrs by ELISA; format: functional, organism-based; details: time 29.0 hrs
Staphylococcus aureus [10] = test: Antibacterial activity against Methicillin-resistant Staphylococcus aureus infected in C57BL/6 mouse assessed as reduction in TNF-alpha level in serum at 10 mg/kg,ip administrated 5 hrs after bacterial infection measured after 24 hrs by ELISA; format: functional, organism-based; details: time 19.0 hrs
Escherichia coli [11] = test: Antibacterial activity against Carbapenem-resistant Escherichia coli infected in C57BL/6 mouse assessed as reduction in TNF-alpha level in serum at 10 mg/kg,ip pre-administrated 5 hrs before bacterial infection measured after 24 hrs by ELISA; format: functional, organism-based; details: time 29.0 hrs
Staphylococcus aureus [12] = test: Antibacterial activity against Staphylococcus aureus ATCC 25923 infected in C57BL/6 mouse assessed as reduction in inflammatory injury in lung at 10 mg/kg,ip pre-administrated 5 hrs before bacterial infection measured after 24 hrs by hematoxylin and eosin staining based analysis; format: functional, organism-based; details: time 29.0 hrs
Escherichia coli [13] = test: Antibacterial activity against Escherichia coli ATCC 25922 infected in C57BL/6 mouse assessed as reduction in inflammatory injury in lung at 10 mg/kg,ip pre-administrated 5 hrs before bacterial infection measured after 24 hrs by hematoxylin and eosin staining based analysis; format: functional, organism-based; details: time 29.0 hrs
Escherichia coli [14] = test: Antibacterial activity against Escherichia coli ATCC 25922 infected in C57BL/6 mouse assessed as increase in survival rate at 10 mg/kg,ip pre-administrated 5 hrs before bacterial infection measured after 7 days; format: functional, organism-based; details: time 7.0 day
Staphylococcus aureus [15] = test: Antibacterial activity against Methicillin-resistant Staphylococcus aureus infected in C57BL/6 mouse assessed as increase in survival rate at 10 mg/kg,ip pre-administrated 5 hrs before bacterial infection measured after 7 days; format: functional, organism-based; details: time 7.0 day
Peritoneal macrophage [16] = test: Induction of chemotaxis in mouse Peritoneal macrophage assessed as upregulation of MCP-1 expression incubated for 6 hrs by ELISA; format: functional, cell-based
Peritoneal macrophage [17] = test: Induction of chemotaxis in mouse Peritoneal macrophage assessed as upregulation of TNF-alpha expression at 25 to 100 ug/ml incubated for 6 hrs by ELISA; format: functional, cell-based; details: dose 25-100 µg/ml
Mus musculus [18] = test: Induction of chemotaxis in C57BL/6 mouse assessed as upregulation of CXCL2 expression in peritoneal lavage at 10 mg/kg,ip administration measured at 5 to 24 hrs by ELISA; format: functional, organism-based; details: time 5-24 hrs
Peritoneal macrophage [19] = test: Induction of phagocytosis in mouse Peritoneal macrophage assessed as increase in neutral red dye uptake by measuring optical density absorbance at 25 ug/ml incubated for 24 hrs followed by dye addition measured after 4 hrs by absorbance based assay (reference value: 0.089); format: functional; details: dose 25 µg/ml; time 28 hrs
Peritoneal macrophage [20] = test: Induction of nitric oxide production in mouse Peritoneal macrophage incubated for 6 hrs by Griess reagent based ELISA; format: functional, cell-based
Neutrophil = test: Induction of chemotaxis in mouse bone marrow derived neutrophil assessed as increase in neutrophil migration at 100 ug/ml preincubated with KN62 for 30 mins followed by compound addition measured after 8 hrs by crystal violet staining based indirect transwell assay; format: functional, cell-based; details: dose 100.0 µg/ml
Peritoneal macrophage [21] = test: Induction of chemotaxis in mouse Peritoneal macrophage assessed as upregulation of MCP-1 production at 100 ug/ml preincubated with KN-62 followed by compound addition by ELISA; format: functional, cell-based; details: dose 100.0 µg/ml
Mus musculus [22] = test: Inhibition of fibrin formation in mouse infected with Methicillin-resistant Staphylococcus aureus assessed as reduction in fibrin deposition in lung at 10 mg/kg,ip administrated 5 hrs after bacterial infection measured after 24 hrs by immunohistochemical analysis; format: functional, organism-based; details: time 19.0 hrs
Plasma = test: Anticoagulation activity in human platelet poor plasma assessed as elongation of prothrombin time at 100 ug/ml measured after 5 mins; format: functional, cell-free; details: dose 100.0 µg/ml
Mus musculus [23] = test: Anticoagulation activity in mouse infected with Methicillin-resistant Staphylococcus aureus assessed as increase in plasma APC expression at 10 mg/kg,ip administrated 5 hrs after bacterial infection measured after 24 hrs by ELISA; format: functional, organism-based; details: time 19.0 hrs
Mus musculus [24] = test: Anticoagulation activity in mouse infected with Carbapenem-resistant Escherichia coli assessed as increase in plasma TFPI expression at 10 mg/kg,ip administrated 5 hrs after bacterial infection measured after 24 hrs by ELISA; format: functional, organism-based; details: time 19.0 hrs
Mus musculus [25] = test: Anticoagulation activity in mouse infected with Carbapenem-resistant Escherichia coli assessed as increase in plasma AT-III expression at 10 mg/kg,ip administrated 5 hrs after bacterial infection measured after 24 hrs by ELISA; format: functional, organism-based; details: time 19.0 hrs
Staphylococcus aureus [26] = test: (§1) Antibacterial activity against Methicillin-resistant Staphylococcus aureus infected in C57BL/6 mouse with cyclophosphamide-induced neutrophil depletion model assessed as reduction of bacterial burden in peritoneal cavity at 10 mg/kg,ip pre-administrated 5 hrs before bacterial infection measured after 24 hrs; format: functional, organism-based; details: time 29.0 hrs
Staphylococcus aureus [27] = test: as §1, with “clodronate liposome-induced monocyte” for “cyclophosphamide-induced neutrophil”, “administrated” for “pre-administrated”, “after” for “before”; format: functional, organism-based; details: time 19.0 hrs

With `CC[C@H](C)[C@H](NC(=O)[C@@H]1CSSC[C@H](NC(=O)[C@H](CCC(=O)O)NC(=O)[C@@H](NC(=O)[C@H](CCCCN)NC(=O)[C@H](Cc2c[nH]cn2)NC(=O)[C@@H](NC(=O)[C@H](CCCCN)NC(=O)[C@H](CCC(=O)O)NC(=O)[C@H](C)NC(=O)[C@H](CCC(=O)O)NC(=O)[C@H](CCC(=O)O)NC(=O)[C@H](CCC(=O)O)NC(=O)[C@H](C)N)[C@@H](C)O)[C@@H](C)O)C(=O)N[C@@H](CC(C)C)C(=O)N[C@@H](CCC(=O)O)C(=O)N1)C(=O)N[C@@H](Cc1ccccc1)C(=O)N[C@H](C(=O)N[C@@H](CC(C)C)C(=O)N[C@@H](CC(C)C)C(=O)N1CCC[C@H]1C(=O)N1CCC[C@@H]1C(=O)N[C@H](C)C(=O)O)[C@@H](C)O` the Activity (Escherichia coli [1]) was “inactive”, the Activity (Klebsiella pneumoniae) was “inactive” and the Activity (Salmonella paratyphi) was “inactive”. The Activity (Escherichia coli [2]) was “inactive”, the Activity [3] was “inactive” and the Activity (Staphylococcus aureus [4]) was “inactive”. For the same compound, the Activity (Staphylococcus aureus [5]) was “Active”, the Activity (Escherichia coli [6]) was “Active” and the Activity (Staphylococcus aureus [7]) was “Active”. The Activity (Staphylococcus aureus [8]) was “Active”, the Activity (Escherichia coli [9]) was “Active” and the Activity (Staphylococcus aureus [10]) was “Active”. The Activity (Escherichia coli [11]) was “Active”, the Activity (Staphylococcus aureus [12]) was “Active” and the Activity (Escherichia coli [13]) was “Active”. For the same compound, the Activity (Escherichia coli [14]) was “Active”, the Activity (Staphylococcus aureus [15]) was “Active” and the Activity (Peritoneal macrophage [16]) was “Dose-Dependent Effect”. For the same compound, the Activity (Peritoneal macrophage [17]) was “inactive”, the Activity (Mus musculus [18]) was “inactive” and the OD (Peritoneal macrophage [19]) was 0.097. For the same compound, the Activity (Peritoneal macrophage [20]) was “Dose-Dependent Effect”, the Activity (Neutrophil) was “Active” and the Activity (Peritoneal macrophage [21]) was “Active”. For the same compound, the inhibition (Mus musculus [22]) was “Active”, the Activity (Plasma) was “inactive” and the Activity (Mus musculus [23]) was “Active”. The Activity (Mus musculus [24]) was “Active”, the Activity (Mus musculus [25]) was “Active” and the Activity (Staphylococcus aureus [26]) was “inactive”. For the same compound, the Activity (Staphylococcus aureus [27]) was “inactive”.

Source: ChEMBL document CHEMBL5543174, “A Nonbactericidal Anionic Antimicrobial Peptide Provides Prophylactic and Therapeutic Efficacies against Bacterial Infections in Mice by Immunomodulatory-Antithrombotic Duality” (J Med Chem, 2024)
